The text below walks through data of patent US12043827B2, “Compositions, systems, and methods for base diversification” (Pairwise Plants Services, Inc., priority 2020, dated 2024).

Assay type in all cases: cell-based
In one data set the test system is endogenous loci. The data set can be described thus: Transversion mutations from adenine: ABE7.10 with inosine glycosylases (fusion or in trans), HTS in HEK293T cells. As to conditions: all conditions that used ABE7.10, 3 days. An excerpt: The experiment was designed to generate transversion mutations from adenines by promoting inosines to undergo the same cellular DNA repair pathways that generate transversion mutations during translesion-bypass polymerization in cytosine base editing. While not wishing to be bound to any particular theory, it was hypothesized that the key step was to facilitate the glycosylation of inosines generated during adenine base editing. It was hypothesized that once glycosylated, the resulting abasic site can be a substrate for translesion-bypass repair and that this would lead to transversion mutations. Exogenous inosine glycosylases were provided along with ABE to promote inosine glycosylation.
Several inosine glycosylases were screened in HEK293T cells and it was determined whether they were capable of acting on inosines generated by ABE. If inosine is converted into an abasic site, and subsequently repaired through translesion-bypass polymerization, transversion mutations can be generated from adenines.
Five different glycosylases from various species were selected for testing. The following genes were codon-optimized and cloned into a mammalian expression vector, either as unfused gene, or as a C-terminal fusion to ABE7.10 (species source in parenthesis); hMPG (Homo sapiens) having an amino acid sequence of SEQ ID NO:84, mMPG (Mus musculus) having an amino acid sequence of SEQ ID NO:83, rMPG (Rattus norvegicus) having an amino acid sequence of SEQ ID NO:80, SpThp1 (Schizosaccharomyces pombe) having an amino acid sequence of SEQ ID NO:79, MaHDG (Methanosarcina acetivorans) having an amino acid sequence of SEQ ID NO:81, and MbHDG (Methanosarcina barkeri) having an amino acid sequence of SEQ ID NO:82. […] The HEK293T cells were transfected with a plasmid encoding gRNA targeting endogenous loci and either the fusion plasmid or a mixture of plasmids expressing ABE7.10 and the above inosine glycosylases. After 3 days, high-throughput sequencing was used to determine the editing result of targeted adenines. Mock transfection (using pUC19) was used to set baseline editing. All conditions that used ABE7.10 generated 10-20% guanine transition, as expected.

The next data set relates to HEK2 genomic site. As to the kind of experiment: Adenine base editing with inosine glycosylases, HEK2 site (FIGS. 7A-7C). The settings on record: all conditions that used ABE. An excerpt:
FIGS. 7A-7C are graphs showing adenine base editing results for a HEK2 genomic site. Adenines in the target window were diversified into cytosine and thymine. All conditions that used ABE generated ˜10-20% guanine mutation, as expected. FIG. 7A is a graph providing the results for inosine glycosylase fusion constructs. FIG. 7B is a graph providing the results for inosine glycosylases provided in trans and overexpressed in the cell. FIG. 7C is a graph showing the amount of indels generated by the constructs.
(§1) Five different glycosylases from various species were selected for testing. The following genes were codon-optimized and cloned into a mammalian expression vector, either as unfused gene, or as a C-terminal fusion to ABE7.10 (species source in parenthesis); hMPG (Homo sapiens) having an amino acid sequence of SEQ ID NO:84, mMPG (Mus musculus) having an amino acid sequence of SEQ ID NO:83, rMPG (Rattus norvegicus) having an amino acid sequence of SEQ ID NO:80, SpThp1 (Schizosaccharomyces pombe) having an amino acid sequence of SEQ ID NO:79, MaHDG (Methanosarcina acetivorans) having an amino acid sequence of SEQ ID NO:81, and MbHDG (Methanosarcina barkeri) having an amino acid sequence of SEQ ID NO:82. […]

Another data set has as its system FANCF genomic site. As to the kind of experiment: Adenine base editing with inosine glycosylases, FANCF site (FIGS. 8A-8C). The settings on record: all conditions that used ABE.
Description: FIGS. 8A-8C are graphs showing adenine base editing results for a FANCF genomic site. Adenines in the target window were diversified into cytosine and thymine. All conditions that used ABE generated ˜10-20% guanine mutation, as expected. FIG. 8A is a graph providing the results for inosine glycosylase for fusion constructs. FIG. 8B is a graph providing the results for inosine glycosylases provided in trans and overexpressed in the cell. […] is a graph showing the amount of indels generated by the constructs.
as §1

Data set [1] deals with spacer sequence corresponding to SEQ ID NO:131. The data set can be described thus: SunTag recruitment system for adenine base diversifier / reduced Cas9 binding affinity, HTS in HEK293T cells. The settings on record: scFv-TadA8.20m-GB1 or scFv-TadA8e-GB1, glycosylase overexpressed in trans, FIGS. 10 and 11. An excerpt:
Different forms of Cas9 were expressed in HEK293T cells, which were: nCas9(D10A) (SEQ ID NO:36), dCas9-SunTag (SEQ ID NO:135), nCas9(D10A)-SunTag (SEQ ID NO:136), and enCas9(D10A)-SunTag (SEQ ID NO:137), along with a SunTag-antibody-fused adenine deaminase, with a GB1 solubility tag at the C-terminus, having a sequence of SEQ ID NO:138 or SEQ ID NO:139. An inosine glycosylase, which was hMPG (SEQ ID NO:84), mMPG (SEQ ID NO:83), or SpThp1 (SEQ ID NO:79) was overexpressed in trans. The glycosylase was not actively recruited, but was expressed in the cell at the same time as the Cas9 and deaminase.
In an attempt to reduce the Cas9 DNA binding affinity to a target nucleic acid, Cas9 having mutated amino acid residues that may interact with the target nucleic acid were used. Without being limited to any particular theory, the thought was that this would facilitate the dissociation of Cas9 from the target nucleic acid once adenine is converted to inosine; thus, providing greater access for inosine glycosylase. Specifically, enCas9(D10A) (SEQ ID NO:39) contains two mutations that reduce DNA binding affinity compared to nCas9(D10A) (Halperin et al. Nature 2018 560(7717):248-252). The effect of the mutations in the context of SunTag-mediated adenine diversification were tested. […]
After three days, the editing efficiency was measured by high throughput sequencing of targeted loci. […]

Data set [2] deals with Sites 1-4 (SEQ ID NO:131-134). As to the kind of experiment: Truncation of inosine glycosylase regulatory domain, hMPG vs thMPG fusions to ABE8.20m. The settings on record: N- and C-terminus fusions to ABE8.20m, four sites, FIG. 12. An excerpt: Methylpurine glycosylase (MPG) usually contains two domains. The catalytic domain of MPG is necessary for excising inosine from DNA (Hollis, Lau, Ellenberger. Mutation Research 2000, 460, 201-210). Without being bound to any particular theory, in an effort to reduce the size of MPG, potentially allow for better inosine access to the catalytic domain, and potentially improve the solubility of the fusion complex, the N-terminus of MPG was truncated.
In this experiment, both N-terminus and C-terminus fusions of hMPG to ABE8.20m (SEQ ID NO:57) were tested with a truncated variant of hMPG (thMPG) (SEQ ID NO:85). Four different target nucleic acids were tested, which were: Site 1: […] (SEQ ID NO:131), Site 2: […] (SEQ ID NO:132), Site 3: […] (SEQ ID NO:133), and Site 4: […] (SEQ ID NO:134).

For “ABE7.10: adenine base editor, unfused ABE7.10 having amino acid sequence of SEQ ID NO:55”, in the data set on endogenous loci, the “guanine transition of targeted adenines” value was 10-20%. The guanine mutation in the data set on HEK2 genomic site and in the data set with FANCF genomic site was 10-20% in each case.

Consider “nCas9(D10A)-SunTag: Cas9 nickase (D10A) fused to SunTag, SEQ ID NO:136”, for which, in data set [1], the “A to C or T editing” value is given as “increase in A to C or T editing compared to expression of nCas9(D10A) without SunTag”.

B1: thMPG: truncated variant of hMPG, SEQ ID NO:85, fused to ABE8.20m (protein, listed as Homo sapiens)
chain: KGHLTRLGLEFFDQPAVPLARAFLGQVLVRRLPNGTELRGRIVETEAYLGPEDEAAHSRGGRQTPRNRGMFMKPGTLYVYIIYGMYFCMNISSQGDGACVLLRALEPLEGLETMRQLRSTLRKGTASRVLKDRELCSGPSKLCQALAINKSFDQRDLAQDEAVWLERGPLEPSEPAVVAAARVGVGHAGEWARKPLRFYVRGSPWVSVVDRVAEQDTQA
B1: the “adenine conversion to C or T activity, truncated vs full-length MPG” value in data set [2] was “no observed decrease in activity and, in some cases, there was an observed increase in adenine conversion to C or T”.
